In experiment [1] the target is T1, cytosolic kinase domain of KDR kinase (Homo sapiens, UniProt P35968).
T1 construct: The cytosolic kinase domain of KDR kinase was expressed as a 6His fusion protein in Sf9 insect cells; 6His; made in house; host or cells: Sf9 insect cells
Put plainly: KDR Assay (ELISA, phosphorylation of poly(Glu4;Tyr1)). The conditions noted are these: 3.3 µM ATP, 60 minutes at room temperature, 30 ng KDR kinase domain. The experiment is classed as biochemical. As to the method: The cytosolic kinase domain of KDR kinase was expressed as a 6His fusion protein in Sf9 insect cells. The KDR kinase domain fusion protein was purified over a Ni^++ chelating column. Ninety-six well ELISA plates were coated with 5 µg poly(Glu4;Tyr1) (Sigma Chemical Co., St Louis, MO) in 100 µl HEPES buffer (20 mM HEPES, pH 7.5, 150 mM NaCl, 0.02% Thimerosal) at 4° overnight. Before use, the plate was washed with HEPES, NaCl buffer and the plates were blocked with 1% BSA, 0.1% Tween 20 in HEPES, NaCl buffer.
Test compounds were serially diluted in 100% DMSO from 4 mM to 0.12 µM in half-log dilutions. These dilutions were further diluted twenty fold in H2O to obtain compound solutions in 5% DMSO. Following loading of the assay plate with 85 µl of assay buffer (20 mM HEPES, pH 7.5, 100 mM KCl, 10 mM MgCl2, 3 mM MnCl2, 0.05% glycerol, 0.005% Triton X-100, 1 mM -mercaptoethanol, with or without 3.3 µM ATP), 5 µl of the diluted compounds were added to a final assay volume of 100 µl. Final concentrations were between 10 µM, and 0.3 nM in 0.25% DMSO. The assay was initiated by the addition of 10µl (30 ng) of KDR kinase domain.
The assay was incubated with test compound or vehicle alone with gentle agitation at room temperature for 60 minutes. The wells were washed and phosphotyrosines (PY) were probed with an anti-phosphotyrosine (PY), mAb clone 4G10 (Upstate Biotechnology, Lake Placid, NY). PY/anti-PY complexes were detected with an anti-mouse IgG/HRP conjugate (Amersham International plc, Buckinghamshire, England). Phosphotyrosine was quantitated by incubating with 100 µl 3, 3', 5, 5' tetramethylbenzidine solution (Kirkegaard and Perry, TMB Microwell 1 Component peroxidase substrate). Color development was arrested by the addition of 100 µl 1% HCl-based stop solution (Kirkegaard and Perry, TMB I Component Stop Solution).
Optical densities were determined spectrophotometrically at 450 nm in a 96-well plate reader, SpectraMax 250 (Molecular Devices). Background (no ATP in assay) OD values were subtracted from all ODs and the percent inhibition was calculated according to the equation: % Inhibition =((OD(vehicle control) - OD(with compound)) X 100)/(OD(vehicle control) - OD(no ATP added)) [formula]
The IC50 values were determined with a least squares analysis program using compound concentration versus percent inhibition. Compounds that have IC50 < 100 nM in this assay include those of Examples 1, 2, 4, 5, 6, 7, 10, 11, 12, 13, 14, 15, 16 and 23. Compounds that have IC50 values between 100 nM and 1,000 nM include those of examples 8, 9 and 22. Those that have measured IC50 values > 1,000 nM include those of examples 3, 17, 18 and 21.

Experiment [2] deals with T2, NIH3T3 cells expressing the full length KDR receptor (Homo sapiens, UniProt P35968).
T2 construct: NIH3T3 cells expressing the full length KDR receptor; expressed in transfected cells; host or cells: NIH3T3 cells (G418 selection)
As to the kind of experiment: Cell mechanistic assay - Inhibition of 3T3 KDR phosphorylation. The experiment is classed as cell-based. The conditions noted are these: VEGF (30 ng / ml) for 10 minutes after 30 minutes with compound; KDR phosphotyrosine ELISA. On the procedure: NIH3T3 cells expressing the full length KDR receptor were grown in DMEM (Life Technologies, Inc., Grand Island, NY) supplemented with 10% newborn calf serum, low glucose, 25 mM /L sodium pyruvate, pyridoxine hydrochloride and 0.2 mg/ ml of G418 (Life Technologies Inc., Grand Island, NY). The cells were maintained in collagen I-coated T75 flasks (Becton Dickinson Labware, Bedford, MA) in a humidified 5% CO2 atmosphere at 37°C.
Fifteen thousand cells were plated into each well of a collagen I-coated 96-well plate in the DMEM growth medium. Six hours later, the cells were washed and the medium was replaced with DMEM without serum. After overnight culture to quiesce the cells, the medium was replaced by Dulbecco's phosphate-buffered saline (Life Technologies Inc., Grand Island, NY) with 0.1% bovine albumin (Sigma Chemical Co., St Louis, MO). After adding various concentrations (0-300 nM) of test compounds to the cells in 1% final concentration of DMSO, the cells were incubated at room temperature for 30 minutes. The cells were then treated with VEGF (30 ng / ml) for 10 minutes at room temperature. Following VEGF stimulation, the buffer was removed and the cells were lysed by addition of 150 µl of extraction buffer (50 mM Tris, pH 7.8, supplemented with 10% glycerol, 50 mM BGP, 2 mM EDTA, 10 mM NaF, 0.5 mM NaVO4, and 0.3% TX-100) at 4°C for 30 minutes.
To assess receptor phosphorylation, 100 microliters of each cell lysate was added to the wells of an ELISA plate precoated with 300 ng of antibody C20 (Santa Cruz Biotechnology, Inc., Santa Cruz , CA). Following a 60-minute incubation, the plate was washed and bound KDR was probed for phosphotyrosine using an anti-phosphotyrosine mAb clone 4G10 (Upstate Biotechnology, Lake Placid, NY). The plate was washed and wells were incubated with anti-mouse IgG/HRP conjugate (Amersham International plc, Buckinghamshire, England) for 60 minutes. Wells were washed and phosphotyrosine was quantitated by addtion of 100 µl per well of 3,3',5,5' tetramethylbenzidine (Kirkegaard and Perry, TMB Microwell 1 Component peroxidase substrate) solution. Color development was arrested by the addition of 100 µl 1% HCl based stop solution (Kirkegaard and Perry, TMB 1 Component Stop Solution).
Optical densities (OD) were determined spectrophotometrically at 450 nm in a 96-well plate reader (SpectraMax 250, Molecular Devices). Background (no VEGF added) OD values were subtracted from all ODs and percent inhibition was calculated according to the equation: % Inhibition =((OD(VEGF control) - OD(with test compound)) X 100)/(OD(VEGF control) - OD(no VEGF added)) [formula]
IC50s were determined with a least squares analysis program using compound concentration versus percent inhibition. Compounds that have IC50 < 20 nM in this assay include those of Examples 2, 6, 7, 11, 15 and 16. Compounds that have IC50 values between 20 nM and 50 nM include those of examples 1, 4, 5, 8, 10, 12, 13 and 14. Those that have measured IC50 values > 50 nM include those of examples 9 and 21.
Background: An ELISA detects its analyte on a solid surface through an enzyme-linked reagent.

Each structure is given as a SMILES string. Where a name gives a salt, the structure may show the parent alone.

T2 sequence (P35968 20-1356): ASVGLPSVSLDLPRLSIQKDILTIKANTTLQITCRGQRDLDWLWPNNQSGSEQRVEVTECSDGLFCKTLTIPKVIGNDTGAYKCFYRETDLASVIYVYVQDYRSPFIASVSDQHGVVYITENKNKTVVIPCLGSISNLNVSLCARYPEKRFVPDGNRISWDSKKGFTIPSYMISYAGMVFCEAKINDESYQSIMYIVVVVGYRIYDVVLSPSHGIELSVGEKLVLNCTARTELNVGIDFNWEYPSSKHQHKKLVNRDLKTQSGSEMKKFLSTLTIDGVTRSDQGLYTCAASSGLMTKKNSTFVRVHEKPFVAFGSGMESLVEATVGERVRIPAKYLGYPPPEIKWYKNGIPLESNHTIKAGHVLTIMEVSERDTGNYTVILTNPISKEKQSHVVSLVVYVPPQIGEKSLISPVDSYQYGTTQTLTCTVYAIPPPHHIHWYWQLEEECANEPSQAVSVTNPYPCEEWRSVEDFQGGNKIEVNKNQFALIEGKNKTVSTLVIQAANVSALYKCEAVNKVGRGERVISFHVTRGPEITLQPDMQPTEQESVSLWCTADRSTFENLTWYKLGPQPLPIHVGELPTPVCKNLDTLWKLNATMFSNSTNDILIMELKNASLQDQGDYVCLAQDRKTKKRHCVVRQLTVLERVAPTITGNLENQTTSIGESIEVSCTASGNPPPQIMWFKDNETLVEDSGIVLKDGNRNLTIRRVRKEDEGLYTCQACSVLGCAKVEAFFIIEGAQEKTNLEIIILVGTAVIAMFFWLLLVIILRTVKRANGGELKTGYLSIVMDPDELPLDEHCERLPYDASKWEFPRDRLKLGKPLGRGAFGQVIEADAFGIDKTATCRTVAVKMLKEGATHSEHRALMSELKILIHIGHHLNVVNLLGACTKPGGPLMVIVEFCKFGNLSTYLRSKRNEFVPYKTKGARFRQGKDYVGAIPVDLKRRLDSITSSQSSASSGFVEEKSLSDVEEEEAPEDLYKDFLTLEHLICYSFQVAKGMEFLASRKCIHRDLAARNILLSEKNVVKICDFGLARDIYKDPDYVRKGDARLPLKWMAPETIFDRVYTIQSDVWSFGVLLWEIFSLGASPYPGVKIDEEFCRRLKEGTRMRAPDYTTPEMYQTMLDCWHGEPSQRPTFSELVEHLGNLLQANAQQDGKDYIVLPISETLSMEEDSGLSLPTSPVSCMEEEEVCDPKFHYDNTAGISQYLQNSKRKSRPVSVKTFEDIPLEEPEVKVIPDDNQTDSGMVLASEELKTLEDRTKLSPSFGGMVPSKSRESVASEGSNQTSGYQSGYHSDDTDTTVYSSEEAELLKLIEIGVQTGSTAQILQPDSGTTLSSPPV
T1 sequence (P35968 834-1162 limits assumed): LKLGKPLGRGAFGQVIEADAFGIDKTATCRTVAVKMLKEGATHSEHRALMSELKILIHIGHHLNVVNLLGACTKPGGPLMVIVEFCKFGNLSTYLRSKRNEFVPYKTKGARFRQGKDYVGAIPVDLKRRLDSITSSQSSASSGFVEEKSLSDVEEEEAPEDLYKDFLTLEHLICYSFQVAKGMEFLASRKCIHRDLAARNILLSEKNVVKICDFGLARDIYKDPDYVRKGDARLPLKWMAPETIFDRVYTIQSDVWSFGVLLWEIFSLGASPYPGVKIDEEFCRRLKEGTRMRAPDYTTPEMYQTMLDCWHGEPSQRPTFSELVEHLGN

In the case of `Clc1ccc(Nc2nnc(OCc3cccnc3)c3ccccc23)cc1` [Example 3, 1-(4-chlorophenylamino)-4-(3-pyridylmethoxy)phthalazine], in experiment [1], the IC50 (usually the concentration that inhibits the measured activity by half) was greater than 1000 nM.

As to `CNC(=O)c1cc(COc2nnc(Nc3ccc(Cl)cc3)c3ccccc23)ccn1` [Example 4, 4-[4-(4-Chlorophenylamino)phthalazin-1-yloxymethyl]pyridin-2-yl carboxylic acid methylamide], the IC50 in experiment [1] was less than 100 nM; in experiment [2] it was 20 to 50 nM.

For the molecule `NC(=O)c1cc(COc2nnc(Nc3ccc(Cl)cc3)c3ccccc23)ccn1` [Example 5, 4-[4-(4-Chlorophenylamino)phthalazin-1-yloxymethyl]pyridin-2-yl carboxylic acid amide], the IC50 in experiment [2] was in the range of 20 to 50 nM. In the case of `CNC(=O)c1cc(Cc2nnc(Nc3cccc(Br)c3)c3ccccc23)ccn1` [Example 6, 4-[4-(3-Bromophenylamino)phthalazin-1-ylmethyl]-pyridin-2-yl carboxylic acid methylamide], the IC50 is less than 100 nM in experiment [1] and less than 20 nM in experiment [2]. For the molecule `NC(=O)c1cc(Cc2nnc(Nc3cccc(Br)c3)c3ccccc23)ccn1` [Example 7, 4-[4-(3-Bromophenylamino)phthalazin-1-ylmethyl]-pyridin-2-yl carboxylic acid amide], the IC50 was less than 100 nM in experiment [1] and less than 20 nM in experiment [2]. On to `Clc1ccc(Nc2nnc(Cc3ccnc(-c4ccccc4)c3)c3ccccc23)cc1` [Example 8, 1-(4-chlorophenylamino)-4-[(2-phenyl-4-pyridyl)methyl]phthalazine], for which the IC50 in experiment [1] lay in the range of 100 to 1000 nM; in experiment [2], 20 to 50 nM. As for `c1ccc2c(Nc3ccc(Oc4ccncc4)cc3)nnc(Cc3ccncc3)c2c1` [Example 9, 1-[4-(4-pyridyloxy)phenylamino]-4-(4-pyridylmethyl)phthalazine], the IC50 in experiment [1] was 100 to 1000 nM; in experiment [2], greater than 50 nM. As for `c1ccc2c(Nc3ccc4c(c3)CCC4)nnc(Cc3ccncc3)c2c1` [Example 10, 1-(indan-5-ylamino)-4-(4-pyridylmethyl)phthalazine], the IC50 was less than 100 nM in experiment [1] and 20 to 50 nM in experiment [2].

`CNC(=O)c1cc(Cc2nnc(Nc3ccc(Cl)cc3)c3ccccc23)ccn1` [Example 11, 4-[4-(4-Chlorophenylamino)phthalazin-1-ylmethyl]pyridin-2-yl carboxylic acid methylamide dihydrochloride]: the IC50 in experiment [2] was less than 20 nM. As to `CNC(=O)c1cc(Cc2nnc(Nc3ccc(Cl)cc3)c3ccccc23)ccn1` [Example 12, 4-[4-(4-Chlorophenylamino)phthalazin-1-ylmethyl]pyridin-2-yl carboxylic acid methylamide dimethanesulfonate], in experiment [2], the IC50 was in the range of 20 to 50 nM.

On to `NC(=O)c1cc(Cc2nnc(Nc3ccc(Cl)cc3)c3ccccc23)ccn1` [Example 13, 4-[4-(4-Chlorophenylamino)phthalazin-1-ylmethyl]pyridin2-yl carboxylic acid amide dihydrochloride], for which the IC50 was less than 100 nM in experiment [1] and 20 to 50 nM in experiment [2].

As for `NC(=O)c1cc(Cc2nnc(Nc3ccc(Cl)cc3)c3ccccc23)ccn1` [Example 14, 4-[4-(4-Chlorophenylamino)phthalazin-1-ylmethyl]pyridin-2-yl carboxylic acid amide dimethanesulfonate], the IC50 in experiment [2] was 20 to 50 nM. For `NC(=O)c1cc(COc2nnc(Nc3ccc(Cl)cc3)c3ccccc23)ccn1` [Example 15, 4-[4-(4-Chlorophenylamino)phthalazin-1-yloxymethyl]pyridin-2-yl carboxylic acid amide dihydrochloride], the IC50 was less than 100 nM in experiment [1] and less than 20 nM in experiment [2].

Regarding `NC(=O)c1cc(COc2nnc(Nc3ccc(Cl)cc3)c3ccccc23)ccn1` [Example 16, 4-[4-(4-Chlorophenylamino)phthalazin-1-yloxymethyl]pyridin-2-yl carboxylic acid amide dimethanesulfonate], the IC50 in experiment [2] was less than 20 nM.

Consider `Clc1ccc(Nc2nnc(Sc3nnc(-c4ccncc4)[nH]3)c3ccccc23)cc1` [Example 17, 1-(4-chlorophenylamino)-4-[5-(4-pyridyl)-1H-1,2,4-triazolyl-3-ylthio]phthalazine], for which the IC50 in experiment [1] was greater than 1000 nM. In turn, `CC(C)c1ccc(Nc2nnc(Sc3nnc(-c4ccncc4)[nH]3)c3ccccc23)cc1` [Example 18, 1-(4-isopropylphenylamino)-4-[5-(4-pyridyl)-1H-1,2,4-triazolyl-3-ylthio]phthalazine] had an IC50 in experiment [1] greater than 1000 nM. Molecule `N#CC(c1ccncc1)c1nnc(Nc2ccc3c(c2)CCC3)c2ccccc12` (centres unmarked) [Example 22, 1-(indan-5-ylamino)-4-(4-pyridylcyanomethyl)phthalazine] came in with an IC50 in experiment [1] of 100 to 1000 nM.

On to `c1ccc2c(Nc3ccc4ncsc4c3)nnc(Cc3ccncc3)c2c1` [Example 23, 1-(benzothiazol-6-ylamino)-4-(4-pyridylmethyl)phthalazine], for which the IC50 in experiment [1] was less than 100 nM.

The values are drawn from patent EP1208096B1, “SUBSTITUTED PYRIDAZINES AND FUSED PYRIDAZINES WITH ANGIOGENESIS INHIBITING ACTIVITY” (Bayer Corporation, priority 1999, dated 2001).
